Measured values: PMC8615647, “Structural Rearrangements of a Dodecameric Ketol-Acid Reductoisomerase Isolated from a Marine Thermophilic Methanogen” (Biomolecules, 2021)

T1: MtKARI (Methanothermococcus thermolithotrophicus, UniProt A0A8X6EH16)
T1 construct: gene ilvC; native full-length class I enzyme purified from M. thermolithotrophicus, no tag; modelled residues 2-330 (Rossmann 2-183, knot 184-330); dodecamer 438 kDa
T1 sequence (A0A8X6EH16 1-330): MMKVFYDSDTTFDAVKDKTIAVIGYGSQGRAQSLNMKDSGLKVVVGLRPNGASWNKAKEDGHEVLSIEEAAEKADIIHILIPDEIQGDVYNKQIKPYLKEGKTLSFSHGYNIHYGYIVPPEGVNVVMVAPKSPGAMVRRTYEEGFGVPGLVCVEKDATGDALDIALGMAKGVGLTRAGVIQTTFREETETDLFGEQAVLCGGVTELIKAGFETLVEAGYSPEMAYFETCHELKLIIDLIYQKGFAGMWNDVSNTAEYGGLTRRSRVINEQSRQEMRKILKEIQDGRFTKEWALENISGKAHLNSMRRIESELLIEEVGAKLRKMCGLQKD

B1: Ketol-acid reductoisomerase from Methanothermococcus thermolithotrophicus (enzyme, UniProt A0A8X6EH16 1-330, looked up)
chain: MMKVFYDSDTTFDAVKDKTIAVIGYGSQGRAQSLNMKDSGLKVVVGLRPNGASWNKAKEDGHEVLSIEEAAEKADIIHILIPDEIQGDVYNKQIKPYLKEGKTLSFSHGYNIHYGYIVPPEGVNVVMVAPKSPGAMVRRTYEEGFGVPGLVCVEKDATGDALDIALGMAKGVGLTRAGVIQTTFREETETDLFGEQAVLCGGVTELIKAGFETLVEAGYSPEMAYFETCHELKLIIDLIYQKGFAGMWNDVSNTAEYGGLTRRSRVINEQSRQEMRKILKEIQDGRFTKEWALENISGKAHLNSMRRIESELLIEEVGAKLRKMCGLQKD
notes: ketol-acid reductoisomerase (EC 1.1.1.86), class I, of Methanothermococcus thermolithotrophicus DSM 2095; native enzyme; model with Rossmann domain (2-183) and knot domain (184-330); stretch 47-53 is printed as LRPNGAS; Native protein without tags, identified by MALDI-TOF-MS; The crystals held NADP and Mg2+ (close state) or NADP and tartrate (open state); also called MtKARI; KARI; source: …

Experiments:
MtKARI = target: T1, MtKARI; test: X-ray crystallography; type: binding; settings: open state, 2.2 A; crystal soaked with 50 mM L-tartrate, 20 mM NADP, 50 mM MgCl2; Mg2+-free, pH 6.5; substrate analogue at the nicotinamide site
[1] = target: the molecule itself; test: native gel or EMSA; hrCN-PAGE, 5 to 15% gradient gel, 2 ug enriched MtKARI; cathode buffer with 0.05% sodium deoxycholate and 0.01% dodecyl maltoside, pH 7

Molecule	X-ray crystallography (MtKARI)	stoichiometry N [1]
O=C(O)[C@H](O)[C@@H](O)C(=O)O [L-tartrate]	tartrate takes the vacant position of the nicotinamide group of NADPH and is loosely bound	–
B1	–	12
